26 molecules from BindingDB's records for doi:10.7270/Q2639NCQ (The Scripps Research Institute Molecular Screening Center, 2013) can be followed below.

This experiment concerns the target T1, Mitochondrial peptide methionine sulfoxide reductase (Bos taurus, UniProt P54149).
T1 sequence (P54149 whole entry): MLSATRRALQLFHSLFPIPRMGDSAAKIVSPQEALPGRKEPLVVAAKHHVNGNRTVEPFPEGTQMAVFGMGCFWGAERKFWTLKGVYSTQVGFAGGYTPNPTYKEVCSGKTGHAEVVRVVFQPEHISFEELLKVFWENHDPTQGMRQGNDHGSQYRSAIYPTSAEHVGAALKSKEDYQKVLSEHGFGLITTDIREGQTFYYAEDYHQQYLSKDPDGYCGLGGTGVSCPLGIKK
As to `Cc1ccc(S(=O)(=O)NCCNc2ccc([N+](=O)[O-])cc2C(F)(F)F)cc1` [4-methyl-N-(2-{[4-nitro-2-(trifluoromethyl)phenyl]amino}ethyl)benzenesulfonamide], the IC50 is above 155 µM. As for `CCOc1ccc(N(C)S(=O)(=O)c2cc(-c3cc(C)no3)ccc2C)cc1` [SMR000630369], the IC50 was above 155 µM. `CCOC(=O)C(=CC(C#N)C(=O)OCC)C(=N)N1CCN(c2ccc(OC)cc2)CC1` (stereo unspecified) gave a 50% inhibitory concentration (IC50) of 139 µM.

`CC1(C)C2CCC(CN=C(N)CSS(=O)(=O)O)C1C2` (stereo unspecified) [SMR001821892] had an IC50 above 155 µM. `O=C(N/N=C/c1sc(N2CCOCC2)nc1-c1ccccc1)c1ccc(O)cc1` [MLS000336683] displayed an IC50 above 155 µM. `CCOC(=O)N/N=C1/c2ccccc2-c2nc3nonc3nc21` [SMR000305141] yielded an IC50 above 155 µM. The same measure for `c1ccc2c(c1)nc(-c1ccncc1)n1nnnc21` [SMR000060326]: above 155 µM; for `COC(=O)COc1ccc2oc(=O)cc(-c3cc4ccccc4o3)c2c1` [MLS001167555]: above 155 µM; for `O=C(O)Cc1sc(N=NC=CCc2ccccc2)nc1O` [2-[4-oxo-2-[(2E)-2-[(E)-3-phenylprop-2-enylidene]hydrazinyl]-1,3-thiazol-5-yl]acetic acid]: 97.5 µM.

As to `Cc1ccc(Nc2[nH]nc(C)c2[N+](=O)[O-])cc1C` [(3,4-Dimethyl-phenyl)-(5-methyl-4-nitro-2H-pyrazol-3-yl)-amine], the 50% inhibitory concentration (IC50) was above 155 µM. Molecule `Cc1cc(/C=C(/C#N)c2cccc(F)c2)c(C)n1-c1cccnc1` [3-[2,5-dimethyl-1-(3-pyridinyl)-1H-pyrrol-3-yl]-2-(3-fluorophenyl)acrylonitrile] had an IC50 above 155 µM. The same measure for `Cc1cc(OC(C)C)c2c(-c3ccccc3)cc(=O)oc2c1` [SMR000141385]: above 155 µM. As for `Cc1ccc(NS(=O)(=O)c2ccc3c(c2)C(=O)c2ccccc2C3=O)c(C)c1` [SMR000207645], the IC50 was above 155 µM.

`CCOP(=O)(CCP(=O)(OCC)OCC)OCC` [MLS002702923]: the IC50 came to 11 µM. `COc1ccccc1-c1cc(C(F)(F)F)nc(N2CCOCC2)n1` returned a half-maximal inhibitory concentration (IC50) above 155 µM. On to `Cc1ccc(-c2csc3nc(C)n(-n4c(C)ccc4C)c(=O)c23)o1` [SMR000061692], for which the IC50 is above 155 µM.

As for `CC1=CC(=C(C#N)C#N)C=C(C)N1CCN1CCNCC1` [2-[2,6-dimethyl-1-(2-piperazin-1-ylethyl)pyridin-4-ylidene]propanedinitrile], the IC50 is above 155 µM. `O=C(O)Cc1sc(N=NC=CCc2ccccc2)nc1O` [SMR000236709] registered an IC50 of 118 µM. In the case of `COc1ccc(Nc2ccc(C(F)(F)F)cc2[N+](=O)[O-])cn1` [SMR000688981], the 50% inhibitory concentration (IC50) is above 155 µM.

Turning to `Cc1ccc(Nc2[nH]nc(C)c2[N+](=O)[O-])c(C)c1` [MLS000700556], the IC50 is above 155 µM. The molecule `COC(=O)COc1ccc2oc(=O)cc(-c3cc4cccc(OC)c4o3)c2c1` [MLS001167553] displayed a half-inhibitory concentration (IC50) above 155 µM. The same measure for `Cc1cc(OCC(=O)N2CCc3ccccc3C2)c2c(-c3ccccc3)cc(=O)oc2c1` [5-[2-(3,4-dihydro-2(1H)-isoquinolinyl)-2-oxoethoxy]-7-methyl-4-phenyl-2H-chromen-2-one]: above 155 µM. In the case of `N#Cc1c(-n2cccc2CN=O)sc2c1CCCC2` [SMR000009830], the IC50 is above 155 µM. `O=C(O)c1cccc(N=NCc2sc(N3CCOCC3)nc2-c2ccccc2)c1` [3-[(2E)-2-[(2-morpholin-4-yl-4-phenyl-1,3-thiazol-5-yl)methylidene]hydrazinyl]benzoic acid] displayed an IC50 above 155 µM. As for `Nc1nnc(CC(=O)N/N=C/c2ccc(-c3ccccc3)o2)s1`, the IC50 is above 155 µM.

In the case of `N#CC1C(=N)Oc2c(O)cc3ccccc3c2C1c1ccsc1` (stereo unspecified) [3-amino-5-hydroxy-1-(3-thiophenyl)-1H-benzo[f][1]benzopyran-2-carbonitrile], the IC50 was above 155 µM.

As a reminder, the IC50 is the concentration needed to halve the response being measured. Read a high IC50 as lower potency.
